Experiments:
IMC-1 (IL-2 20 ng/mL) [1] = experiment: drug sensitivity score (DSS) (DSS units); higher = more sensitive; extreme values may be limits of the assay; settings: 72 h
KHYG-1 (IL-2 2.5 ng/mL) [2] = experiment: as above; settings: 72 h
[3] = tested on: normal primary NK cells, pool 3 (3 donors) (IL-2 2.5 ng/mL); experiment: as above; settings: 72 h
[4] = tested on: normal primary NK cells, pool 1 (3 donors), resting (IL-2 0 ng/mL); experiment: as above; settings: 72 h
NK-YS (IL-2 2.5 ng/mL) [5] = experiment: as above; settings: 72 h
DERL-7 (IL-2 2.5 ng/mL) [6] = experiment: as above; settings: 72 h
[7] = tested on: normal primary NK cells, pool 1 (3 donors) (IL-2 2.5 ng/mL); experiment: as above; settings: 72 h
[8] = tested on: normal primary NK cells, pool 2 (3 donors) (IL-2 2.5 ng/mL); experiment: as above; settings: 72 h
NKL (IL-2 2.5 ng/mL) [9] = experiment: as above; settings: 72 h
KAI3 (IL-2 2.5 ng/mL) [10] = experiment: as above; settings: 72 h
NK-92 (IL-2 2.5 ng/mL) [11] = experiment: as above; settings: 72 h
SNK-6 (IL-2 2.5 ng/mL) [12] = experiment: as above; settings: 72 h
YT (IL-2 2.5 ng/mL) [13] = experiment: as above; settings: 72 h
[14] = tested on: normal NK cells expanded with K562-aAPC; experiment: as above; settings: 72 h; IL-2 2.5 ng/mL
Protocol: (§1)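 Drug sensitivity and resistance testing on K562-aAPC-expanded normal NK cells: 5 concentrations (10-fold steps over a 10,000-fold range), 72 h at 37 °C, viability by CellTiter-Glo normalised to DMSO and benzethonium chloride controls; DSS from the fitted curve.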

[15] = tested on: normal NK cells expanded with K562-aAPC; experiment: percent inhibition of viability; higher = more inhibition; settings: 72 h, IL-2 2.5 ng/mL
Protocol: as §1

IMC-1 (IL-2 20 ng/mL) [16] = experiment: as above; settings: 72 h
KHYG-1 (IL-2 2.5 ng/mL) [17] = experiment: as above; settings: 72 h
[18] = tested on: normal primary NK cells, pool 3 (3 donors) (IL-2 2.5 ng/mL); experiment: as above; settings: 72 h
[19] = tested on: normal primary NK cells, pool 1 (3 donors), resting (IL-2 0 ng/mL); experiment: as above; settings: 72 h
NK-YS (IL-2 2.5 ng/mL) [20] = experiment: as above; settings: 72 h
DERL-7 (IL-2 2.5 ng/mL) [21] = experiment: as above; settings: 72 h
[22] = tested on: normal primary NK cells, pool 1 (3 donors) (IL-2 2.5 ng/mL); experiment: as above; settings: 72 h
[23] = tested on: normal primary NK cells, pool 2 (3 donors) (IL-2 2.5 ng/mL); experiment: as above; settings: 72 h
NKL (IL-2 2.5 ng/mL) [24] = experiment: as above; settings: 72 h
KAI3 (IL-2 2.5 ng/mL) [25] = experiment: as above; settings: 72 h
NK-92 (IL-2 2.5 ng/mL) [26] = experiment: as above; settings: 72 h
SNK-6 (IL-2 2.5 ng/mL) [27] = experiment: as above; settings: 72 h
YT (IL-2 2.5 ng/mL) [28] = experiment: as above; settings: 72 h

O=C(Nc1ccc2[nH]nc(-c3ccncc3)c2c1)[C@@H]1CCN(CC(=O)N2CCN(c3ccc(-c4ncccn4)cc3)CC2)C1 (max concentration tested 10000 nM)
Settings | drug sensitivity score
DERL-7 (IL-2 2.5 ng/mL) [6] | 10.3
IMC-1 (IL-2 20 ng/mL) [1] | 0
KAI3 (IL-2 2.5 ng/mL) [10] | 5.52
KHYG-1 (IL-2 2.5 ng/mL) [2] | 9.89
NK-92 (IL-2 2.5 ng/mL) [11] | 0.01
NK-YS (IL-2 2.5 ng/mL) [5] | 3.58
NKL (IL-2 2.5 ng/mL) [9] | 10.9
SNK-6 (IL-2 2.5 ng/mL) [12] | 0.08
YT (IL-2 2.5 ng/mL) [13] | 1.87
[3] | 0.32
[4] | 5.24
[7] | 4.28
[8] | 0.76
[14] | 1.01

percent inhibition of viability [%]
Settings | 1 nM | 10 nM | 100 nM | 1000 nM | 10000 nM
DERL-7 (IL-2 2.5 ng/mL) [21] | -1.39 | 5.53 | 18 | 42.9 | 66.6
IMC-1 (IL-2 20 ng/mL) [16] | -5.11 | -10.7 | -8.77 | -10.1 | -4.64
KAI3 (IL-2 2.5 ng/mL) [25] | -4.48 | 5.51 | 14.6 | 21 | 46.9
KHYG-1 (IL-2 2.5 ng/mL) [17] | -2.48 | -2.2 | 5.59 | 45.6 | 78.9
NK-92 (IL-2 2.5 ng/mL) [26] | -6.06 | -9.07 | -16.6 | -32.5 | 12.5
NK-YS (IL-2 2.5 ng/mL) [20] | -4.51 | -0.3 | -0.1 | 9.9 | 40.6
NKL (IL-2 2.5 ng/mL) [24] | -19.4 | -14.6 | 3.59 | 55.7 | 71.8
SNK-6 (IL-2 2.5 ng/mL) [27] | -4.99 | 4.31 | 5.1 | -34.4 | 15.8
YT (IL-2 2.5 ng/mL) [28] | -0.05 | -0.51 | -3.3 | 9.81 | 22.2
[15] | 2.7 | -4.22 | -5.95 | 2.93 | 20.3
[18] | -13.2 | -18.2 | -22.8 | -10.8 | 20
[19] | 4.46 | -7.38 | -1.31 | 12.8 | 58.7
[22] | -5.21 | -6.91 | -5.12 | 11.2 | 47.8
[23] | -6.14 | -5.45 | 0.32 | 5.74 | 15.6

CC(=O)N(O)CCCCCNC(=O)CCC(=O)N(O)CCCCCNC(=O)CCC(=O)N(O)CCCCCN [Deferoxamine] (max concentration tested 10000 nM)
Settings | drug sensitivity score
IMC-1 (IL-2 20 ng/mL) [1] | 5.37
[3] | 4.59
[8] | 3.84
[14] | 8.23

percent inhibition of viability [%]
Settings | 1 nM | 10 nM | 100 nM | 1000 nM | 10000 nM
IMC-1 (IL-2 20 ng/mL) [16] | -6.25 | -3.2 | -4.14 | -0.7 | 97.2
[15] | -3.82 | -8.67 | -5.64 | 22.8 | 86.1
[18] | -1.79 | 6.03 | 10.4 | 16.1 | 53.2
[23] | -2.8 | 5.46 | 3.49 | 11.1 | 42.7

CCN(CC)CCCC(C)Nc1c2ccc(Cl)cc2nc2ccc(OC)cc12 (configuration not stated) [Mepacrine] (max concentration tested 50000 nM)
Settings | drug sensitivity score
IMC-1 (IL-2 20 ng/mL) [1] | 18.2
[3] | 18.1
[8] | 19.4
[14] | 17.6

percent inhibition of viability [%]
Settings | 5 nM | 50 nM | 500 nM | 5000 nM | 50000 nM
IMC-1 (IL-2 20 ng/mL) [16] | -0.62 | -1.1 | 2.08 | 100 | 101
[15] | -2.84 | -3.46 | -4.79 | 100 | 101
[18] | -11.7 | 0.46 | 1.96 | 98.8 | 101
[23] | -13.9 | -3.31 | 9.39 | 98 | 101

CN(C)C(=O)c1cc2cnc(Nc3ccc(N4CCNCC4)cn3)nc2n1C1CCCC1 [NVP-LEE011] (max concentration tested 10000 nM)
Settings | drug sensitivity score
DERL-7 (IL-2 2.5 ng/mL) [6] | 3.81
KAI3 (IL-2 2.5 ng/mL) [10] | 2
KHYG-1 (IL-2 2.5 ng/mL) [2] | 9.33
NK-92 (IL-2 2.5 ng/mL) [11] | 2.18
NK-YS (IL-2 2.5 ng/mL) [5] | 4.9
NKL (IL-2 2.5 ng/mL) [9] | 2.07
SNK-6 (IL-2 2.5 ng/mL) [12] | 1.78
YT (IL-2 2.5 ng/mL) [13] | 3.67
[4] | 6.2
[7] | 3.77

percent inhibition of viability [%]
Settings | DERL-7 (IL-2 2.5 ng/mL) [21] | KAI3 (IL-2 2.5 ng/mL) [25] | KHYG-1 (IL-2 2.5 ng/mL) [17] | NK-92 (IL-2 2.5 ng/mL) [26] | NK-YS (IL-2 2.5 ng/mL) [20] | NKL (IL-2 2.5 ng/mL) [24] | SNK-6 (IL-2 2.5 ng/mL) [27] | YT (IL-2 2.5 ng/mL) [28] | [19] | [22]
1 nM | -3.18 | -3.87 | -4.23 | -9.54 | -2.35 | -12.3 | -8.9 | -3.41 | 7.64 | 4.32
10 nM | 4.13 | 1.07 | 0.91 | -16.1 | -0.02 | -11.2 | 3.64 | -2.71 | 12.1 | 8.46
100 nM | 1.76 | -4.85 | -1.06 | -4.22 | 5.18 | -15 | -2.64 | -0.92 | 17.7 | 8.7
1000 nM | 11.2 | 4.66 | 37.5 | 15.8 | 22.1 | -6.48 | 12.5 | 9.6 | 14.8 | 6.05
10000 nM | 41.6 | 29.2 | 81.3 | 20.8 | 48 | 47.9 | 19.8 | 42.3 | 51.6 | 51.8

From the supplement of paper PMC5908809
